Experimental data from patent US9169252B2 (BRISTOL-MYERS SQUIBB COMPANY, priority 2014, dated 2015).
Read-outs that look alike come from different tables or passages of the source.

Assays:
[1] = test system: TLR2 induced IL-6 in peripheral blood mononuclear cells (PBMCs); assay: PBMC TLR2 Induced IL-6 Assay; assay type: cell-based, human; settings: human PBMCs, lipoteichoic acid stimulated, IL-6 by ELISA; for EC50: read-out: Cell EC50; for IC50: read-out: Cell IC50
Method in brief: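 Lipoteichoic acid at 10 µg/ml served as TLR2 stimulus for 5 hours, following a 30-minute compound pretreatment at 37° C. Cells were Ficoll-isolated human PBMCs, 250000 cells/well, cultured in RPMI plus 10% heat-inactivated FCS.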

IRAK4 = IRAK4 (Homo sapiens (Human), UniProt Q9NWZ3); assay: IRAK4 Inhibition Assay; assay type: biochemical; settings: ATP 500 μM; IRAK4 0.6 nM; read-out: IRAK4 IC50
Sequence of IRAK4 (Q9NWZ3 whole entry, species assumed): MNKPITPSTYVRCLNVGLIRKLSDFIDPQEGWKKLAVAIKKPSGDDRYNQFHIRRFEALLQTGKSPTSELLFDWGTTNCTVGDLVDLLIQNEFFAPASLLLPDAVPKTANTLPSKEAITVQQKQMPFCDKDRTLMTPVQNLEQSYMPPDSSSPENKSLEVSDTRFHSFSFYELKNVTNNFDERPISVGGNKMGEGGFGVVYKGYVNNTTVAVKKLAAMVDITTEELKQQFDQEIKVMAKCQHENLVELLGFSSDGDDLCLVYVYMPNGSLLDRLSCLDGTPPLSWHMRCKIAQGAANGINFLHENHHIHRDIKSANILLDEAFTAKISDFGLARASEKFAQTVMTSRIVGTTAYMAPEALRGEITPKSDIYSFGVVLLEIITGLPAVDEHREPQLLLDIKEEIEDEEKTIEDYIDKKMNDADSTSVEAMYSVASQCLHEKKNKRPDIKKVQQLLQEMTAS
Method in brief: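 Mobility-shift readout: fluorescent substrate and phosphoproduct resolved electrophoretically on Caliper LabChip 3000 after EDTA quench (35 mM). Enzyme reaction of IRAK4, substrates and test compound ran 60 min at room temperature.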

Row | IC50 (IRAK4) [nM] | Structure (SMILES) | EC50 ([1]; Homo sapiens, PBMC) [nM] | IC50 ([1]; Homo sapiens, PBMC) [nM] | IC50 [1] [nM] | EC50 [1] [nM]
1 | 1.3 | CC(C)(O)[C@H](F)CNC(=O)c1cnc(-n2ccc3cc(C#N)cnc32)cc1N[C@@H]1CCN(S(C)(=O)=O)C1 [Example 465] | 7 | 23 | – | –
2 | 13.9 | CC(C)(O)[C@H](F)CNC(=O)c1cnc(-n2ccc3cc(C#N)cnc32)cc1N[C@@H]1CCNC1 [Example 466] | 792 | 130 | – | –
3 | 2.3 | CC(C)Nc1cc(-n2ccc3cc(C#N)cnc32)ncc1C(=O)NCC(=O)N1CCN(C)CC1 [Example 467] | 26 | 100 | – | –
4 | 5.8 | CC(=O)N1CC(Nc2cc(-n3ccc4cc(C#N)cnc43)ncc2C(=O)NC[C@@H](F)C(C)(C)O)C1 [Example 468] | 128 | 1010 | – | –
5 | 2.9 | CC(=O)N1CC[C@@H](Nc2cc(-n3ccc4cc(C#N)cnc43)ncc2C(=O)NC[C@@H](F)C(C)(C)O)C1 [Example 469] | 84 | 207 | – | –
6 | 8 | CC(=O)N1CCC(Nc2cc(-n3ccc4cc(C#N)cnc43)ncc2C(=O)NC[C@@H](F)C(C)(C)O)CC1 [Example 470] | 240 | – | – | –
7 | 10.1 | CC(C)(O)[C@H](F)CNC(=O)c1cnc(-n2ccc3cc(C#N)cnc32)cc1Nc1ccc(-n2ccnc2)cc1 [Example 471] | 194 | – | – | –
8 | 2 | CC(C)(O)[C@H](F)CNC(=O)c1cnc(-n2ccc3cc(C#N)cnc32)cc1NC1CN(c2ncc(F)cn2)C1 [Example 472] | 70 | 123 | – | –
9 | 4.1 | CC(C)(O)[C@H](F)CNC(=O)c1cnc(-n2ccc3cc(C#N)cnc32)cc1N[C@@H]1CCN(C(=O)CC(F)(F)F)C1 [Example 473] | 238 | 483 | – | –
10 | 1.2 | COC(=O)N1CC[C@@H](Nc2cc(-n3ccc4cc(C#N)cnc43)ncc2C(=O)NC[C@@H](F)C(C)(C)O)C1 [Example 474] | 77 | 315 | – | –
11 | 3 | CC(C)(O)[C@H](F)CNC(=O)c1cnc(-n2ccc3cc(C#N)cnc32)cc1NC1CN(S(C)(=O)=O)C1 [Example 476] | 198 | – | – | –
12 | 2.9 | CC(C)(O)[C@H](F)CNC(=O)c1cnc(-n2ccc3cc(C#N)cnc32)cc1N[C@@H]1CCN(C(=O)CC#N)C1 [Example 477] | 301 | 1300 | – | –
13 | 4.7 | C[C@@H](CO)Nc1cc(-n2ccc3cc(C#N)cnc32)ncc1C(=O)NCCNS(C)(=O)=O [Example 478] | 462 | 805 | – | –
14 | 5.7 | CS(=O)(=O)NCCNC(=O)c1cnc(-n2ccc3cc(C#N)cnc32)cc1NC1CCOCC1 [Example 479] | 144 | 835 | – | –
15 | 4 | CC(C)(O)[C@H](F)CNC(=O)c1cnc(-n2ccc3cc(C#N)cnc32)cc1NCCN1CCOCC1 [Example 480] | 170 | 270 | – | –
16 | 1.9 | COC(=O)N1CC(Nc2cc(-n3ccc4cc(C#N)cnc43)ncc2C(=O)NC[C@@H](F)C(C)(C)O)C1 [Example 481] | 53 | 595 | – | –
17 | 17.4 | CC(C)(O)[C@H](F)CNC(=O)c1cnc(-n2ccc3cc(C#N)cnc32)cc1NCC1CCOCC1 [Example 482] | 433 | – | – | –
18 | 1.2 | CC(C)(O)[C@H](F)CNC(=O)c1cnc(-n2ccc3cc(C#N)cnc32)cc1N[C@H]1CC[C@H](C(N)=O)CC1 [Example 486] | – | 177 | – | –
19 | 2 | CC(C)Nc1cc(-n2ccc3cc(C#N)cnc32)ncc1C(=O)NCCC1(O)CCCC1 [Example 487] | 34 | 111 | – | –
20 | 6.8 | CC(C)(O)[C@H](F)CNC(=O)c1cnc(-n2ccc3cc(C#N)cnc32)cc1NC1CCC(NCC(F)(F)F)C1 (stereo partly shown) [Example 488] | 208 | – | 379 | –
21 | 4.3 | CC(C)(O)[C@H](F)CNC(=O)c1cnc(-n2ccc3cc(C#N)cnc32)cc1NC1CCC(NCC(F)(F)F)C1 (stereo partly shown) [Example 489] | – | – | 1700 | 318
22 | 3 | CC(C)Nc1cc(-n2ccc3cc(C#N)cnc32)ncc1C(=O)NCC(F)C1(O)COC1 (stereo not shown) [Example 494] | – | 289 | – | –
23 | 1.8 | CC(C)Nc1cc(-n2ccc3cc(C#N)cnc32)ncc1C(=O)NCC(F)C1(O)COC1 (stereo not shown) [Example 495] | – | – | 215 | –
24 | 3.7 | CC(C)Nc1cc(-n2ccc3cc(C#N)cnc32)ncc1C(=O)N[C@H]1CC[C@H](C(C)(C)O)C1 [Example 497] | – | 98 | – | –
25 | 5.7 | CC(C)COC(=O)NCc1cnc2c(ccn2-c2cc(NC(C)C)c(C(=O)NC[C@@H](F)C(C)(C)O)cn2)c1 [Example 498] | – | 248 | – | –
26 | 13.2 | CCN(CC)C(=O)NCc1cnc2c(ccn2-c2cc(NC(C)C)c(C(=O)NC[C@@H](F)C(C)(C)O)cn2)c1 [Example 500] | – | 546 | – | –

Row | IC50 (IRAK4) [nM] | Structure (SMILES) | EC50 ([1]; Homo sapiens, PBMC) [nM] | IC50 ([1]; Homo sapiens, PBMC) [nM] | IC50 [1] [nM] | EC50 [1] [nM]
27 | 5.4 | CCOC(=O)NCc1cnc2c(ccn2-c2cc(NC(C)C)c(C(=O)NC[C@@H](F)C(C)(C)O)cn2)c1 [Example 501] | – | 332 | – | –
28 | 4.8 | CC(C)Nc1cc(-n2ccc3cc(CNC(=O)OC(C)C)cnc32)ncc1C(=O)NC[C@@H](F)C(C)(C)O [Example 502] | – | 366 | – | –
29 | 2.3 | CC(C)CC(=O)NCc1cnc2c(ccn2-c2cc(NC(C)C)c(C(=O)NC[C@@H](F)C(C)(C)O)cn2)c1 [Example 503] | – | 99 | – | –
30 | 4.3 | CC(C)Nc1cc(-n2ccc3cc(CNC(=O)CC4CCCC4)cnc32)ncc1C(=O)NC[C@@H](F)C(C)(C)O [Example 504] | – | 262 | – | –
31 | 13.5 | CC(C)Nc1cc(-n2ccc3cc(CNC(=O)C4CC4)cnc32)ncc1C(=O)NC[C@@H](F)C(C)(C)O [Example 505] | – | 559 | – | –
32 | 1.5 | C[C@@H](F)CNc1cc(-n2ccc3cc(C#N)cnc32)ncc1C(=O)NC[C@@H](F)C(C)(C)O [Example 506] | – | 65 | – | –
33 | 1.4 | C[C@H](F)CNc1cc(-n2ccc3cc(C#N)cnc32)ncc1C(=O)NC[C@@H](F)C(C)(C)O [Example 507] | – | 374 | – | –
34 | 2.8 | CCCOC(=O)NCc1cnc2c(ccn2-c2cc(NC(C)C)c(C(=O)NC[C@@H](F)C(C)(C)O)cn2)c1 [Example 508] | – | 224 | – | –
35 | 1.6 | CC(C)(O)[C@H](F)CNC(=O)c1cnc(-n2ccc3cc(C#N)cnc32)cc1N[C@H]1C[C@H](C(C)(C)O)C1 [Example 509] | – | 128 | – | –
36 | 3.2 | CCCC(=O)NCc1cnc2c(ccn2-c2cc(NC(C)C)c(C(=O)NC[C@@H](F)C(C)(C)O)cn2)c1 [Example 510] | – | 250 | – | –
37 | 5.4 | CC(C)Nc1cc(-n2ccc3cc(CNC(=O)CC4CCCCC4)cnc32)ncc1C(=O)NC[C@@H](F)C(C)(C)O [Example 511] | – | 47 | – | –
38 | 3.5 | CC(C)CCC(=O)NCc1cnc2c(ccn2-c2cc(NC(C)C)c(C(=O)NC[C@@H](F)C(C)(C)O)cn2)c1 [Example 512] | – | 541 | – | –
39 | 5.9 | CCCNC(=O)NCc1cnc2c(ccn2-c2cc(NC(C)C)c(C(=O)NC[C@@H](F)C(C)(C)O)cn2)c1 [Example 513] | – | 389 | – | –
40 | 8.2 | CC(C)Nc1cc(-n2ccc3cc(CNC(=O)NCc4ccccc4)cnc32)ncc1C(=O)NC[C@@H](F)C(C)(C)O [Example 514] | – | 47 | – | –
41 | 2.2 | CC(C)Nc1cc(-n2ccc3cc(CNC(=O)Cc4ccccc4)cnc32)ncc1C(=O)NC[C@@H](F)C(C)(C)O [Example 515] | – | 542 | – | –
42 | 8.6 | CCCCNC(=O)NCc1cnc2c(ccn2-c2cc(NC(C)C)c(C(=O)NC[C@@H](F)C(C)(C)O)cn2)c1 [Example 516] | – | 414 | – | –
43 | 1.2 | CC(C)(F)[C@H](F)CNC(=O)c1cnc(-n2ccc3cc(C#N)cnc32)cc1Nc1cccc(O)c1 [Example 517] | – | 113 | – | –
44 | 14 | CC(C)Nc1cc(-n2ccc3cc(CNC(=O)CC4CCOCC4)cnc32)ncc1C(=O)NC[C@@H](F)C(C)(C)O [Example 518] | – | 94 | – | –
45 | 2.7 | CC(C)Nc1cc(-n2ccc3cc(CNC(=O)CC(C)(C)C)cnc32)ncc1C(=O)NC[C@@H](F)C(C)(C)O [Example 519] | – | 126 | – | –
46 | 10.5 | CC(C)Nc1cc(-n2ccc3cc(CNC(=O)C4CCOC4)cnc32)ncc1C(=O)NC[C@@H](F)C(C)(C)O (stereo partly shown) [Example 520] | – | 347 | – | –
47 | 3.5 | CC(C)(O)c1cnc(Nc2cc(-n3ncc4cc(C#N)cnc43)ncc2C(=O)NC[C@@H](F)C(C)(C)O)s1 [Example 521, (R)-6-(5-Cyano-1H-pyrazolo[3,4-b]pyridin-1-yl)-N-(2-fluoro-3-hydroxy-3-methylbutyl)-4-((5-(2-hydroxypropan-2-yl)thiazol-2-yl)amino)nicotinamide] | 460 | – | – | –
48 | 2.6 | CC(C)(O)[C@H](F)CNC(=O)c1cnc(-n2ncc3cc(C#N)cnc32)cc1Nc1cccc(C#N)c1 [Example 522] | 177 | – | – | –
49 | 2.6 | CC(C)(O)[C@H](F)CNC(=O)c1cnc(-n2ncc3cc(C#N)cnc32)cc1Nc1ccc2ncsc2c1 [Example 524] | 132 | – | – | –
50 | 1.6 | CC(C)(O)[C@H](F)CNC(=O)c1cnc(-n2ncc3cc(C(N)=O)cnc32)cc1Nc1ccc2ncoc2c1 [Example 525] | 253 | – | – | –
51 | 3.7 | CC(C)(O)[C@H](F)CNC(=O)c1cnc(-n2ncc3cc(C#N)cnc32)cc1Nc1ccc(-n2cncn2)cc1 [Example 526] | 113 | – | – | –
